This series has as its system human primary monocytes. Description: IFN-α production in human primary monocytes transfected with RNA (ELISA). The format is cell-based. The settings on record: for IFN-α-inducing activity conferred by the 5′ 4-nucleotide sequence: adenosine-initiated in vitro transcribed RNA oligonucleotides, FIG. 13; for IFN-α induction (*100%) mean: monocytes from three donors, 36 hours after transfection, normalized to the mean induction level of all oligonucleotides (=100%); for IFN-α production in monocytes: 200 ng RNA transfected, ELISA. For orientation: ELISA stands for enzyme-linked immunosorbent assay.

Oligonucleotides are written 5' to 3', each unit as a sugar letter and its base; * is a phosphorothioate linkage, no mark a phosphodiester; rarer units and linkages stand in square brackets, end groups in braces. Plain capitals give the bases only. {ppp} = triphosphate group; r = 2'-OH (RNA)

Consider “acggggggac acacacacac acacacacac (ACGGGGGGACACACACACACACACACACAC; RNA, 5' {ppp}, backbone not given here) [SEQ ID No. 145]”, for which the “IFN-α-inducing activity conferred by the 5′ 4-nucleotide sequence” value (“IFN-α-inducing activity conferred” for short) was “highest IFN-α-inducing activity” and the “IFN-α induction (*100%) mean” value was 1.03 *100%.

In the case of “acugggggac acacacacac acacacacac (ACUGGGGGACACACACACACACACACACAC; RNA, 5' {ppp}, backbone not given here) [SEQ ID No. 152]”, the “IFN-α-inducing activity conferred” value is given as “highest IFN-α-inducing activity” and the “IFN-α induction (*100%) mean” value was 1.14 *100%.

Take “5′-pppAGGGAAGCGGGCAUGCGGCCAGCCAUAGCCGAUCA-3′ [AΦ6.5-35 n]”: under “24 hours”, the “IFN-α production in monocytes” value was “clear superiority”.

Regarding “acuuggggac acacacacac acacacacac (ACUUGGGGACACACACACACACACACACAC; RNA, 5' {ppp}, backbone not given here) [SEQ ID No. 118]”, the “IFN-α induction (*100%) mean” value was 0.66 *100%.

For the substance “acgaggggac acacacacac acacacacac (ACGAGGGGACACACACACACACACACACAC; RNA, 5' {ppp}, backbone not given here) [SEQ ID No. 151]”, the “IFN-α-inducing activity conferred” value is listed as “highest IFN-α-inducing activity” and the “IFN-α induction (*100%) mean” value is given as 1.14 *100%.

“aggaggggac acacacacac acacacacac (AGGAGGGGACACACACACACACACACACAC; RNA, 5' {ppp}, backbone not given here) [SEQ ID No. 161]”: the “IFN-α-inducing activity conferred” value is reported as “highest IFN-α-inducing activity” and the “IFN-α induction (*100%) mean” value is reported as 1.27 *100%.

For the substance “aaauggggac acacacacac acacacacac (AAAUGGGGACACACACACACACACACACAC; RNA, 5' {ppp}, backbone not given here) [SEQ ID No. 146]”, the “IFN-α-inducing activity conferred” value was “highest IFN-α-inducing activity” and the “IFN-α induction (*100%) mean” value is 1.04 *100%.

With “auccggggac acacacacac acacacacac (AUCCGGGGACACACACACACACACACACAC; RNA, 5' {ppp}, backbone not given here) [SEQ ID No. 141]”, the “IFN-α-inducing activity conferred” value was “highest IFN-α-inducing activity” and the “IFN-α induction (*100%) mean” value was 1.01 *100%.

As to “aaaaggggac acacacacac acacacacac (AAAAGGGGACACACACACACACACACACAC; RNA, 5' {ppp}, backbone not given here) [SEQ ID No. 121]”, the “IFN-α induction (*100%) mean” value is 0.73 *100%.

As to “acgcggggac acacacacac acacacacac (ACGCGGGGACACACACACACACACACACAC; RNA, 5' {ppp}, backbone not given here) [SEQ ID No. 147]”, the “IFN-α-inducing activity conferred” value is “highest IFN-α-inducing activity” and the “IFN-α induction (*100%) mean” value is reported as 1.08 *100%.

Turning to “auguggggac acacacacac acacacacac (AUGUGGGGACACACACACACACACACACAC; RNA, 5' {ppp}, backbone not given here) [SEQ ID No. 153]”, the “IFN-α-inducing activity conferred” value is listed as “highest IFN-α-inducing activity” and the “IFN-α induction (*100%) mean” value was 1.15 *100%.

For the substance “5′-PPPGGGAGACAGGAAAAAAAAAAAAAAAAAAAAA-3′ [tri-poly A]”, the “IFN-α production in monocytes” value (24 hours) is on record as “equally potent”.

With “auagggggac acacacacac acacacacac (AUAGGGGGACACACACACACACACACACAC; RNA, 5' {ppp}, backbone not given here) [SEQ ID No. 123]”, the “IFN-α induction (*100%) mean” value is listed as 0.76 *100%.

On to “accgggggac acacacacac acacacacac (ACCGGGGGACACACACACACACACACACAC; RNA, 5' {ppp}, backbone not given here) [SEQ ID No. 122]”, for which the “IFN-α induction (*100%) mean” value is reported as 0.73 *100%.

Turning to “acacggggac acacacacac acacacacac (ACACGGGGACACACACACACACACACACAC; RNA, 5' {ppp}, backbone not given here) [SEQ ID No. 135]”, the “IFN-α induction (*100%) mean” value is given as 0.95 *100%.

Take “accaggggac acacacacac acacacacac (ACCAGGGGACACACACACACACACACACAC; RNA, 5' {ppp}, backbone not given here) [SEQ ID No. 126]”: the “IFN-α induction (*100%) mean” value was 0.79 *100%.

Take “5′-pppGGGAGACAGGGGGGGGGGGGGGGGGGGGGGG-3′ [tri-poly G]”: for the setting “24 hours”, the “IFN-α production in monocytes” value is “equally potent”.

Regarding “auucggggac acacacacac acacacacac (AUUCGGGGACACACACACACACACACACAC; RNA, 5' {ppp}, backbone not given here) [SEQ ID No. 144]”, the “IFN-α-inducing activity conferred” value was “highest IFN-α-inducing activity” and the “IFN-α induction (*100%) mean” value is given as 1.03 *100%.

On to “agguggggac acacacacac acacacacac (AGGUGGGGACACACACACACACACACACAC; RNA, 5' {ppp}, backbone not given here) [SEQ ID No. 155]”, for which the “IFN-α-inducing activity conferred” value was “highest IFN-α-inducing activity” and the “IFN-α induction (*100%) mean” value is 1.18 *100%.

For the substance “auaaggggac acacacacac acacacacac (AUAAGGGGACACACACACACACACACACAC; RNA, 5' {ppp}, backbone not given here) [SEQ ID No. 127]”, the “IFN-α induction (*100%) mean” value is recorded as 0.82 *100%.

With “aaccggggac acacacacac acacacacac (AACCGGGGACACACACACACACACACACAC; RNA, 5' {ppp}, backbone not given here) [SEQ ID No. 156]”, the “IFN-α-inducing activity conferred” value is “highest IFN-α-inducing activity” and the “IFN-α induction (*100%) mean” value is given as 1.20 *100%.

Turning to “aaucggggac acacacacac acacacacac (AAUCGGGGACACACACACACACACACACAC; RNA, 5' {ppp}, backbone not given here) [SEQ ID No. 132]”, the “IFN-α induction (*100%) mean” value was 0.94 *100%.

Turning to “aacgggggac acacacacac acacacacac (AACGGGGGACACACACACACACACACACAC; RNA, 5' {ppp}, backbone not given here) [SEQ ID No. 170]”, the “IFN-α-inducing activity conferred” value is given as “highest IFN-α-inducing activity” and the “IFN-α induction (*100%) mean” value is reported as 1.34 *100%.

For the substance “5′-pppGCUUAACCUGUCCUUCAAU-3′ [RNA9.2s-1G]”, the “reduction in IFN-α induction compared with RNA9.2s-0A” value (monocytes, 200 ng, 24 hours) was “approximately 25%”.

As to “acuaggggac acacacacac acacacacac (ACUAGGGGACACACACACACACACACACAC; RNA, 5' {ppp}, backbone not given here) [SEQ ID No. 117]”, the “IFN-α induction (*100%) mean” value is 0.62 *100%.

As to “agacggggac acacacacac acacacacac (AGACGGGGACACACACACACACACACACAC; RNA, 5' {ppp}, backbone not given here) [SEQ ID No. 116]”, the “IFN-α induction (*100%) mean” value is 0.62 *100%.

For the substance “aucuggggac acacacacac acacacacac (AUCUGGGGACACACACACACACACACACAC; RNA, 5' {ppp}, backbone not given here) [SEQ ID No. 133]”, the “IFN-α induction (*100%) mean” value is listed as 0.94 *100%.

Regarding “aguuggggac acacacacac acacacacac (AGUUGGGGACACACACACACACACACACAC; RNA, 5' {ppp}, backbone not given here) [SEQ ID No. 168]”, the “IFN-α-inducing activity conferred” value is “highest IFN-α-inducing activity” and the “IFN-α induction (*100%) mean” value is listed as 1.32 *100%.

Take “agccggggac acacacacac acacacacac (AGCCGGGGACACACACACACACACACACAC; RNA, 5' {ppp}, backbone not given here) [SEQ ID No. 128]”: the “IFN-α induction (*100%) mean” value is on record as 0.87 *100%.

Turning to “augaggggac acacacacac acacacacac (AUGAGGGGACACACACACACACACACACAC; RNA, 5' {ppp}, backbone not given here) [SEQ ID No. 169]”, the “IFN-α-inducing activity conferred” value is “highest IFN-α-inducing activity” and the “IFN-α induction (*100%) mean” value is given as 1.32 *100%.

Turning to “5′-PPPGGG AGACAGGUUUUUUUUUUUUUUUUUUUUU-3′ (GGGAGACAGGUUUUUUUUUUUUUUUUUUUUU; RNA, 5' {ppp}, backbone not given here) [tri-poly U]”, the “IFN-α production in monocytes” value (24 hours) is “equally potent”.

With “acaaggggac acacacacac acacacacac (ACAAGGGGACACACACACACACACACACAC; RNA, 5' {ppp}, backbone not given here) [SEQ ID No. 142]”, the “IFN-α-inducing activity conferred” value is given as “highest IFN-α-inducing activity” and the “IFN-α induction (*100%) mean” value is 1.01 *100%.

Turning to “tri-GFPds: annealed dsRNA molecule of tri-GFPs (SEQ ID NO: 341) and tri-GFPa (SEQ ID NO: 348) (sense {ppp}-rGrGrGrGrCrUrGrArCrCrCrUrGrArArGrUrUrCrArUrCrUrU; antisense {ppp}-rGrGrGrGrArUrGrArArCrUrUrCrArGrGrGrUrCrArGrCrUrU; in vitro transcribed strands annealed as dsRNA)”, the “IFN-α production in monocytes” value (24 hours) is reported as “comparable levels of IFN-α”. Further, the “IFN-α inducing activity after cleavage of the 5′ overhang by RNAse T1” value (monocytes) is recorded as “completely abolished the IFN-α inducing activity”.

As to “auuuggggac acacacacac acacacacac (AUUUGGGGACACACACACACACACACACAC; RNA, 5' {ppp}, backbone not given here) [SEQ ID No. 138]”, the “IFN-α induction (*100%) mean” value is 0.99 *100%.

Take “aauuggggac acacacacac acacacacac (AAUUGGGGACACACACACACACACACACAC; RNA, 5' {ppp}, backbone not given here) [SEQ ID No. 119]”: the “IFN-α induction (*100%) mean” value is reported as 0.67 *100%.

On to “aagcggggac acacacacac acacacacac (AAGCGGGGACACACACACACACACACACAC; RNA, 5' {ppp}, backbone not given here) [SEQ ID No. 157]”, for which the “IFN-α-inducing activity conferred” value is “highest IFN-α-inducing activity” and the “IFN-α induction (*100%) mean” value is given as 1.22 *100%.

(Values after patent US9381208B2, “Structure and use of 5′ phosphate oligonucleotides” (Rheinische Friedrich-Wilhelms-Universität, priority 2006, dated 2016).)
